System: SARS-CoV-2 Wuhan virus (SARS-CoV-2-WA1 2020)
Assay: microbe, parasite or virus in culture
Type: cell-based

CCC(CC)COC(=O)[C@H](C)N[P@](=O)(OC[C@H]1O[C@@](C#N)(c2ccc3c(N)ncnn23)[C@H](O)[C@@H]1O)Oc1ccccc1 [Remdesivir]
fold reduction in SARS-CoV-2 replication: 1.5 fold
inhibition of SARS-CoV-2 Wuhan: did not inhibit
EC50 (Severe acute respiratory syndrome coronavirus 2, Vero C1008): ~800 nM
